These results are taken from patent publication US20210355106A1, “NEW AMINO-PYRIMIDONYL-PIPERIDINYL DERIVATIVES, A PROCESS FOR THEIR PREPARATION AND PHARMACEUTICAL COMPOSITIONS CONTAINING THEM” (LES LABORATOIRES SERVIER, priority 2018, published 2021).

One assay has as its target T1, USP7 (Homo sapiens, UniProt Q93009, C315A).
T1 construct: 0.25 nM His-His-USP7 (aa208-560, |C315A|) was incubated with compound; His-His (N)
The assay can be described thus: Inhibition of USP7 by Fluorescence Intensity (FLINT) readings, Ubiquitin-Rhodamine-110 substrate. Type of assay: biochemical. As to conditions: 0.25 nM His-His-USP7 (aa208-560), 60 minutes at 30° C. preincubation; Ki determined from IC50 according to Cer et al. An outline of the steps: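 His-tagged USP7 (aa208-560, C315A), 0.25 nM, preincubated with compound 60 min at 30 °C in 100 mM Bicine pH 8.0, 0.01% Triton X-100, 1 mM TCEP, 10% DMSO. Ubiquitin-Rhodamine-110 (50 nM or 4 μM) added; kinetic fluorescence (Ex 485/Em 535 nm) over 21 min; IC50 from 11-point curves, Ki derived from IC50.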

The test system of assay [1] is Z138 mantle cell lymphoma tumour cell lines. The assay can be described thus: In vitro cytotoxicity, MTT assay. The class given is cell-based. Particulars: Homo sapiens, Z-138; Z138 cells, exposed to the test compounds for 96 hours. A digest of the protocol:
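Z138 cells exposed to compounds for 96 hours, then MTT added for 4 hours. Formazan absorbance at 540 nm serves as the measure of viable cell number.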

T1 sequence (Q93009 208-560 C315A): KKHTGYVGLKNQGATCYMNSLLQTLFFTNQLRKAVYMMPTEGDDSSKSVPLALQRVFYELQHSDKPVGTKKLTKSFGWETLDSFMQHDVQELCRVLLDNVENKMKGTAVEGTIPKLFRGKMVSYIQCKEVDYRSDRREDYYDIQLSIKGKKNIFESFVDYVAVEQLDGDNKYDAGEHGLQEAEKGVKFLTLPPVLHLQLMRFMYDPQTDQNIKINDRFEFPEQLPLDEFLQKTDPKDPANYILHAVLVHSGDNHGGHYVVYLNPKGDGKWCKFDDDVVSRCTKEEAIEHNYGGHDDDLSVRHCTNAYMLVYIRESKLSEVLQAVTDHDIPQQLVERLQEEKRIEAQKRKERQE

In turn, `Nc1c(Oc2ccc(F)cc2)ncn(C[C@@]2(O)CCN(C(=O)[C@@H]3CCN(Cc4ccncn4)C[C@H]3c3ccccc3)CC2(F)F)c1=O` [Example 212, 5-amino-3-[[(4S)-3,3-difluoro-4-hydroxy-1-[(3R,4R)-3-phenyl-1-(pyrimidin-4-ylmethyl)piperidine-4-carbonyl]-4-piperidyl]methyl]-6-(4-fluorophenoxy)pyrimidin-4-one] had a Ki on USP7 of 34.1 nM. This compound also yielded an IC50 in assay [1] of 21.4 nM.
The corresponding values for `COc1cc(Oc2ncn(C[C@@]3(O)CCN(C(=O)[C@@H]4CCN(Cc5cnccn5)C[C@H]4c4ccccc4)CC3(F)F)c(=O)c2N)ccc1F` [Example 213, 5-amino-3-[[(4S)-3,3-difluoro-4-hydroxy-1-[(3R,4R)-3-phenyl-1-(pyrazin-2-ylmethyl)piperidine-4-carbonyl]-4-piperidyl]methyl]-6-(4-fluoro-3-methoxy-phenoxy)pyrimidin-4-one] are 36.4 nM and 15.6 nM.
In turn, `COc1cc(Oc2ncn(C[C@@]3(O)CCN(C(=O)[C@@H]4CCN(Cc5cccnn5)C[C@H]4c4ccccc4)CC3(F)F)c(=O)c2N)ccc1F` [Example 214] returned a Ki at USP7 of 48.3 nM. The IC50 in assay [1] stood at 31.3 nM.
With `COc1cc(Oc2ncn(C[C@@]3(O)CCN(C(=O)[C@@H]4CCN(Cc5ncccn5)C[C@H]4c4ccccc4)CC3(F)F)c(=O)c2N)ccc1F` [Example 215, 5-amino-3-[[(4S)-3,3-difluoro-4-hydroxy-1-[(3R,4R)-3-phenyl-1-(pyrimidin-2-ylmethyl)piperidine-4-carbonyl]-4-piperidyl]methyl]-6-(4-fluoro-3-methoxy-phenoxy)pyrimidin-4-one], the Ki on USP7 is 54.1 nM. Moreover, the IC50 in assay [1] stood at 24.6 nM.
The corresponding values for `COc1cc(Oc2ncn(C[C@@]3(O)CCN(C(=O)[C@@H]4CCN(Cc5nccc(C)n5)C[C@H]4c4ccccc4)CC3(F)F)c(=O)c2N)ccc1F` [Example 216] are 25.7 nM and 19.1 nM.
In the case of `COc1cc(Oc2ncn(C[C@@]3(O)CCN(C(=O)[C@@H]4CCN(Cc5nc(C)cc(C)n5)C[C@H]4c4ccccc4)CC3(F)F)c(=O)c2N)ccc1F` [Example 217], the affinity on USP7 corresponds to a Ki of 42.6 nM. The compound also showed an IC50 in assay [1] of 23.1 nM.
In the same order, the values of `COc1cc(Oc2ncn(C[C@@]3(O)CCN(C(=O)[C@@H]4CCN(Cc5cncc(C)n5)C[C@H]4c4ccccc4)CC3(F)F)c(=O)c2N)ccc1F` [Example 218, 5-amino-3-[[(4S)-3,3-difluoro-4-hydroxy-1-[(3R,4R)-1-[(6-methylpyrazin-2-yl)methyl]-3-phenyl-piperidine-4-carbonyl]-4-piperidyl]methyl]-6-(4-fluoro-3-methoxy-phenoxy)pyrimidin-4-one] are 30.1 nM and 11.5 nM.
In the same order, the values of `COc1cc(Oc2ncn(C[C@@]3(O)CCN(C(=O)[C@@H]4CCN(Cc5nccnc5C)C[C@H]4c4ccccc4)CC3(F)F)c(=O)c2N)ccc1F` [Example 219, 5-amino-3-[[(4S)-3,3-difluoro-4-hydroxy-1-[(3R,4R)-1-[(3-methylpyrazin-2-yl)methyl]-3-phenyl-piperidine-4-carbonyl]-4-piperidyl]methyl]-6-(4-fluoro-3-methoxy-phenoxy)pyrimidin-4-one] are 30.3 nM and 23.4 nM.
With `Cc1cnc(CN2CC[C@@H](C(=O)N3CC[C@](O)(Cn4cnc(Oc5ccc(Cl)cc5)c(N)c4=O)C(F)(F)C3)[C@H](c3ccccc3)C2)cn1` [Example 221, 5-amino-6-(4-chlorophenoxy)-3-[[(4S)-3,3-difluoro-4-hydroxy-1-[(3R,4R)-1-[(5-methylpyrazin-2-yl)methyl]-3-phenyl-piperidine-4-carbonyl]-4-piperidyl]methyl]pyrimidin-4-one], the Ki on USP7 came to 35.5 nM. Besides, the midpoint of inhibition in assay [1], the IC50, lay at 10.2 nM.
In the same order, the values of `NCc1ccc(Oc2ncn(C[C@@]3(O)CCN(C(=O)[C@@H]4CCN(C(=O)c5cc(Cl)cc(Cl)c5)C[C@H]4c4ccccc4)CC3(F)F)c(=O)c2N)cc1` [Example 222, 5-amino-6-[4-(aminomethyl)phenoxy]-3-[[(4S)-1-[(3R,4R)-1-(3,5-dichlorobenzoyl)-3-phenyl-piperidine-4-carbonyl]-3,3-difluoro-4-hydroxy-4-piperidyl]methyl]pyrimidin-4-one] are 0.558 nM and 74.2 nM.
In the same order, the values of `Cc1ccc(-c2nc(C)c(C(=O)N3CC[C@@H](C(=O)N4CCC(O)(Cn5cnc(Oc6ccc(CNC(=O)OC(C)(C)C)cc6)c(N)c5=O)CC4)[C@H](c4ccccc4)C3)s2)cn1` [Example 223, tert-butyl N-[[4-[5-amino-1-[[4-hydroxy-1-[(3R,4R)-1-[4-methyl-2-(6-methyl-3-pyridyl)thiazole-5-carbonyl]-3-phenyl-piperidine-4-carbonyl]-4-piperidyl]methyl]-6-oxo-pyrimidin-4-yl]oxyphenyl]methyl]carbamate] are 4.2 nM and 73.2 nM.
